Structures can show the parent of a compound that is named as a salt.
What was measured:
[1] = In vitro dissolution of sitagliptin phosphate from the drug film layer; type: physicochemical; details: FIG. 4
[2] = oral administration to human Type 2 diabetics; cited from earlier work

Row | dissolution of sitagliptin phosphate compared with sitagliptin phosphate in JANUMET ([1]; comparator JANUMET (immediate-release metformin HCl and sitagliptin phosphate)) | time to complete dissolution of sitagliptin phosphate from the drug film layer ([1]; drug film layer of the composition) [min] | SMILES | effect on fasting glucose, postprandial glucose excursion and HbA1c [2]
1 | comparable | ≤ 30 | N[C@@H](CC(=O)N1CCn2c(nnc2C(F)(F)F)C1)Cc1cc(F)c(F)cc1F [sitagliptin phosphate, dihydrogenphosphate salt of (2R)-4-oxo-4-[3-(trifluoromethyl)-5,6-dihydro[1,2,4]triazolo[4,3-a]pyrazin-7(8H)-yl]-1-(2,4,5-trifluorophenyl)butan-2-amine] | –
2 | – | – | Cn1c(=O)cc(N2CCC[C@@H](N)C2)n(Cc2ccccc2C#N)c1=O [alogliptin] | reduce fasting glucose and postprandial glucose excursion
3 | – | – | N#C[C@@H]1CCCN1C(=O)CNC12CC3CC(CC(O)(C3)C1)C2 [vildagliptin] | reduce fasting glucose and postprandial glucose excursion
4 | – | – | N[C@@H](CC(=O)N1CCn2c(nnc2C(F)(F)F)C1)Cc1cc(F)c(F)cc1F [sitagliptin, (2R)-4-oxo-4-[3-(trifluoromethyl)-5,6-dihydro[1,2,4]triazolo[4,3-a]pyrazin-7(8H)-yl]-1-(2,4,5-trifluorophenyl)butan-2-amine] | reduce fasting glucose and postprandial glucose excursion
